Here are results for 17 compounds from US20250333407A1, “Compounds and Their Use for Treatment of Hemoglobinopathies” (Bristol-Myers Squibb Company, priority 2024, published 2025).

What all share (format): cell-based
One assay addresses T1, ZBTB7A (Homo sapiens, UniProt O95365+Q96SW2).
T1 construct: HUDEP-2 cells engineered to express a HiBiT tag in either the WIZ (Widely interspaced zinc finger) or ZBTB7A
As to the kind of experiment: HUDEP-2 ZBTB7A HiBiT degradation assay. The settings on record: HiBiT-tagged ZBTB7A degradation in HUDEP-2 cells, 24 hours of treatment; read-out: ZBTB7A EC50. The essentials: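 HiBiT-tagged HUDEP-2 cells were pre-cultured 48 h in IMDM with EPO, SCF, doxycycline and 5% human plasma, then exposed to compounds at 1.0×10^6 cells/ml for 24 h at 37 °C. Nano-Glo HiBiT lytic luminescence, normalised to DMSO over 10 concentrations, gave EC50 and Y-min.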
Background: The HiBiT peptide binds its large partner to form an active luciferase.

In a further assay the target is T2, WIZ (Homo sapiens, UniProt O95785+Q96SW2).
T2 construct: HUDEP-2 cells engineered to express a HiBiT tag in either the WIZ (Widely interspaced zinc finger) or ZBTB7A
The experiment in a line: HUDEP-2 WIZ HiBiT degradation assay. The conditions noted are these: HiBiT-tagged WIZ degradation in HUDEP-2 cells, 24 hours of treatment; read-out: WIZ EC50. The essentials: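 HiBiT-tagged HUDEP-2 cells at 1.0×10^6 cells/ml in SFEM II with SCF, EPO, dexamethasone and doxycycline, treated 24 h at 37 °C with a 10-point series ([…]). Luminescence after HiBiT lytic detection, normalized to DMSO; EC50 and Y-min from fitted curves.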

The subject of a further assay is HbF. As to the kind of experiment: HbF HiBiT induction assay in HUDEP-2 cells. The conditions noted are these: HUDEP-2 cells with HiBiT tag in HBG1/2, 72 hours of treatment; area under the dose response curve, higher AUC = greater HbF induction. The essentials:
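HUDEP-2 cells carrying a HiBiT tag on HBG1/2 were exposed to compounds for 72 h at 37° C, 5% CO2, in IMDM with EPO, hSCF, DOX, transferrin, insulin, heparin and 5% human plasma. HiBiT luminescence was read after lytic detection; HbF induction is expressed as dose-response AUC, alongside EC50 and Ymax.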

T2 sequence (O95785 whole entry): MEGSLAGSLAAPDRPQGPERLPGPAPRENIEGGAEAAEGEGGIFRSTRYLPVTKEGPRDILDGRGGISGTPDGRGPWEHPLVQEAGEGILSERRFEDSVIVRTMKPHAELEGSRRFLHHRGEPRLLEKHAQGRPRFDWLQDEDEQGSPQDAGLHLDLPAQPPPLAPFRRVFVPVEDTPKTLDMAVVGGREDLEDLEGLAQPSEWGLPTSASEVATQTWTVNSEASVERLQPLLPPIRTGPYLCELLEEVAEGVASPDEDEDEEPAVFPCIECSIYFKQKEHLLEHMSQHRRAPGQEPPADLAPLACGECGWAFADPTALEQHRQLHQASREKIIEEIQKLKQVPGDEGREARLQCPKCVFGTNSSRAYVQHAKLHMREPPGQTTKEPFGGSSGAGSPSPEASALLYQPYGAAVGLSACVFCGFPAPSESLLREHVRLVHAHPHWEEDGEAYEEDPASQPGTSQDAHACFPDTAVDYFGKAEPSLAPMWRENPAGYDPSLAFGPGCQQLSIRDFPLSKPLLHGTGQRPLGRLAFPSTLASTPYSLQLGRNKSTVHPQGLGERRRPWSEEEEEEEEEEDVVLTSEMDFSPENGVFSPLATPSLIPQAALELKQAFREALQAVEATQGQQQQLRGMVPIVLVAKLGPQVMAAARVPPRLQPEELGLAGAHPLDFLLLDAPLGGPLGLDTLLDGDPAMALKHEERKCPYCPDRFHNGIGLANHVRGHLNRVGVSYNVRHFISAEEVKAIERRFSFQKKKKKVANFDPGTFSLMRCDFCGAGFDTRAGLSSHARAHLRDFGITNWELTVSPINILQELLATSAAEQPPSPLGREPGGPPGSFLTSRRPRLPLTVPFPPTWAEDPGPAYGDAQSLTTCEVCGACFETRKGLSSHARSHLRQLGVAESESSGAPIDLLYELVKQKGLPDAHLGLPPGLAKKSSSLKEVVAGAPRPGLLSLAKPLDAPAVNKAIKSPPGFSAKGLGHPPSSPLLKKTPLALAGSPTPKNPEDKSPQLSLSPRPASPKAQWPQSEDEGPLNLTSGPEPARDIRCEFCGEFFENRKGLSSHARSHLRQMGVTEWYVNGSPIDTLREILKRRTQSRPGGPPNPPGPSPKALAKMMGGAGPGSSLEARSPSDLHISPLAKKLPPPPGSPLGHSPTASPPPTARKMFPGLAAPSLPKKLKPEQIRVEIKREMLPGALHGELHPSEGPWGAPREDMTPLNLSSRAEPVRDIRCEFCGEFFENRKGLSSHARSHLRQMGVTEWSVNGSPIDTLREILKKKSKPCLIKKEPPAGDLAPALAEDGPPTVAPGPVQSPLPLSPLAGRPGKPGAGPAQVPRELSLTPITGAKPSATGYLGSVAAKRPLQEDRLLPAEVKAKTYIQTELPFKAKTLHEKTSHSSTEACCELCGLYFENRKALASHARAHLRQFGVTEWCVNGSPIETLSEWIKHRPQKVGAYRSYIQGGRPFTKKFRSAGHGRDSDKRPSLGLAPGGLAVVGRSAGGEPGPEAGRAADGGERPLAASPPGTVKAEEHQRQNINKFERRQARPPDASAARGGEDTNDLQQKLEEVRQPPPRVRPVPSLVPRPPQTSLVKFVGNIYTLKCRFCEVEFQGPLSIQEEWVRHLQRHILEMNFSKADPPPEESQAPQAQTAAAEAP
T2 sequence (Q96SW2 whole entry): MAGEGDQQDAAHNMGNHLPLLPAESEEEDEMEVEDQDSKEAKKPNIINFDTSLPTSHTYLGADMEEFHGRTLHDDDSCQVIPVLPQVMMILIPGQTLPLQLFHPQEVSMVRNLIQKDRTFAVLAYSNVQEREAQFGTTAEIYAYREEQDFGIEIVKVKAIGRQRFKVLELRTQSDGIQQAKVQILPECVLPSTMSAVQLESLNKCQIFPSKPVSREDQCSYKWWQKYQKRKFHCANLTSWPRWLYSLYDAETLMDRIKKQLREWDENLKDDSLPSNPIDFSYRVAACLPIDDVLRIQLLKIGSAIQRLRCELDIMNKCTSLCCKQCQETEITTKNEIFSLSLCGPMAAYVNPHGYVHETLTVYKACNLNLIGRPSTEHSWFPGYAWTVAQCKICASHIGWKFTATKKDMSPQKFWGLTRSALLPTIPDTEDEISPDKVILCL
T2 sequence (Q16531 whole entry partner): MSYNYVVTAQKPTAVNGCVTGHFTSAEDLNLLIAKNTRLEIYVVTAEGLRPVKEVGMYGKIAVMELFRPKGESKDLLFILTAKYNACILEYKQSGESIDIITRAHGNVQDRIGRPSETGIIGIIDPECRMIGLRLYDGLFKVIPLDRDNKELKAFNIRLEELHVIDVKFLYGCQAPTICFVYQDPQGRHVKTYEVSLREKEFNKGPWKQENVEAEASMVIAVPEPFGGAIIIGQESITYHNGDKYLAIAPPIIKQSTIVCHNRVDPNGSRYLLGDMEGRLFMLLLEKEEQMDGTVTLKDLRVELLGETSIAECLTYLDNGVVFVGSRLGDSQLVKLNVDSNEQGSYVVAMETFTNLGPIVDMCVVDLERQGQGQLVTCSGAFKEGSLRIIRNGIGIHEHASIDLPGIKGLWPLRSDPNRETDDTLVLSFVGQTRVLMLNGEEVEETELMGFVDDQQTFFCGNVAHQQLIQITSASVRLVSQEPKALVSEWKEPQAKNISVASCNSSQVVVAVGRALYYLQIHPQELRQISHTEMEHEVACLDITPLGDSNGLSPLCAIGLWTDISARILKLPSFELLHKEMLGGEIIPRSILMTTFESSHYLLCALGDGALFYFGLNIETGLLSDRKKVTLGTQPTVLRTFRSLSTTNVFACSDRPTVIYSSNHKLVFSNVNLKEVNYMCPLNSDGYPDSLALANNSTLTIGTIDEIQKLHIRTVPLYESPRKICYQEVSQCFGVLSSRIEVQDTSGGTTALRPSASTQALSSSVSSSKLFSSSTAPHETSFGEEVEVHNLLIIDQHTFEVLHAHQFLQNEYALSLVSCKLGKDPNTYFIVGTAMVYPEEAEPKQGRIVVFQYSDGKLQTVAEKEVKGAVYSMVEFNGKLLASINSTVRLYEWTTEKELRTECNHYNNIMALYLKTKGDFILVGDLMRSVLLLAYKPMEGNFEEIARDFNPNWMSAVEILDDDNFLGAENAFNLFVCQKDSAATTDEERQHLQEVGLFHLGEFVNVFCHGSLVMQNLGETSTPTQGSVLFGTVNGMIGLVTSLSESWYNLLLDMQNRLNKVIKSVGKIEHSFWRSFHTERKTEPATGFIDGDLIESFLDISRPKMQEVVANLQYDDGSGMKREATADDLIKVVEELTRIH
T1 sequence (O95365 whole entry): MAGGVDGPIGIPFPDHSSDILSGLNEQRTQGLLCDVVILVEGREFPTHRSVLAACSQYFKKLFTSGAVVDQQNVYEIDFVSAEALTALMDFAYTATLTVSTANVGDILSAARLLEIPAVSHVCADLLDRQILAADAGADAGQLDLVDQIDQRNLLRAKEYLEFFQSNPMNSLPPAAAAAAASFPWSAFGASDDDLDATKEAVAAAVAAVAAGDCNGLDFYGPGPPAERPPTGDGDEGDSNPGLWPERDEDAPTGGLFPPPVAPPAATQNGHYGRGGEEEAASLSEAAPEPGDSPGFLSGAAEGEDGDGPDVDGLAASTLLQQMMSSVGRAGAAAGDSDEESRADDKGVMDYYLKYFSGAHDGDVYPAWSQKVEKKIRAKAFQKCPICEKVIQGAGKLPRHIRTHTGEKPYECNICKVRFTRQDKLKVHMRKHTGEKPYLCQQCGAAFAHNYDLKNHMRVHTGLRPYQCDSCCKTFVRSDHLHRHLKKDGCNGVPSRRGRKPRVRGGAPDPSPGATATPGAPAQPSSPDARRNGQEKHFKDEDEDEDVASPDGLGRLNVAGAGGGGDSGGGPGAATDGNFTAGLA
T1 sequence (Q96SW2 whole entry): as the sequence (Q96SW2 whole entry) above
T1 sequence (Q16531 whole entry partner): as the sequence (Q16531 whole entry partner) above

For `CC(=O)N1CCC(c2cc3c(cc2Nc2cccc4c2C(=O)N([C@H]2CCC(=O)NC2=O)C4=O)N(C)C(=O)[C@@H](C)O3)CC1` [Compound 32, 4-(((R)-7-(1-acetylpiperidin-4-yl)-2,4-dimethyl-3-oxo-3,4-dihydro-2H-benzo[b][1,4]oxazin-6-yl)amino)-2-((S)-2,6-dioxopiperidin-3-yl)isoindoline-1,3-dione], the results for the DC50 at ZBTB7A and at WIZ were 0.014 µM and 0.005 µM, respectively. In addition, in the assay on HbF, the “HBF AUC” value was “+++ (+++ = AUC ≥ 150)”.

Turning to `COc1cc(-c2cc3c(cc2Nc2cccc4c2C(=O)N([C@H]2CCC(=O)NC2=O)C4=O)N(C)C(=O)[C@@H](C)O3)ccn1` [Compound 33, 2-((S)-2,6-dioxopiperidin-3-yl)-4-(((R)-7-(2-methoxypyridin-4-yl)-2,4-dimethyl-3-oxo-3,4-dihydro-2H-benzo[b][1,4]oxazin-6-yl)amino)isoindoline-1,3-dione], the DC50 at ZBTB7A amounted to 0.024 µM; at WIZ, 0.021 µM. For the same compound, the “HBF AUC” value in the assay with HbF is “+ (+ = 15 ≤ AUC < 100)”.

As for `COc1nccc(-c2cc3c(cc2Nc2cccc4c2C(=O)N([C@H]2CCC(=O)NC2=O)C4=O)N(C)C(=O)CO3)c1F` [Compound 34, (S)-2-(2,6-dioxopiperidin-3-yl)-4-((7-(3-fluoro-2-methoxypyridin-4-yl)-4-methyl-3-oxo-3,4-dihydro-2H-benzo[b][1,4]oxazin-6-yl)amino)isoindoline-1,3-dione], the DC50 on ZBTB7A and at WIZ was 0.011 µM each time. In the assay with HbF, the “HBF AUC” value was “+++ (+++ = AUC ≥ 150)”.

Regarding `COc1nccc(-c2cc3c(cc2Nc2cccc4c2C(=O)N([C@H]2CCC(=O)NC2=O)C4=O)N(C)C(=O)[C@H](C)O3)c1F` [Compound 35, 2-((S)-2,6-dioxopiperidin-3-yl)-4-(((S)-7-(3-fluoro-2-methoxypyridin-4-yl)-2,4-dimethyl-3-oxo-3,4-dihydro-2H-benzo[b][1,4]oxazin-6-yl)amino)isoindoline-1,3-dione], the DC50 on ZBTB7A was determined as 0.008 µM; at WIZ, 0.011 µM. Besides, in the assay on HbF, the “HBF AUC” value is on record as “+ (+ = 15 ≤ AUC < 100)”.

On to `COc1nccc(-c2cc3c(cc2Nc2cccc4c2C(=O)N([C@H]2CCC(=O)NC2=O)C4=O)N(C)C(=O)[C@@H](C)O3)c1F` [Compound 36, 2-((S)-2,6-dioxopiperidin-3-yl)-4-(((R)-7-(3-fluoro-2-methoxypyridin-4-yl)-2,4-dimethyl-3-oxo-3,4-dihydro-2H-benzo[b][1,4]oxazin-6-yl)amino)isoindoline-1,3-dione], for which the figures for the DC50 at ZBTB7A and at WIZ were 0.019 µM and 0.015 µM, respectively. Further, the “HBF AUC” value in the assay on HbF is “+ (+ = 15 ≤ AUC < 100)”.

`Cc1ccc(-c2cc3c(cc2Nc2cccc4c2C(=O)N([C@H]2CCC(=O)NC2=O)C4=O)N(C)C(=O)CO3)c(F)n1` [Compound 37, (S)-2-(2,6-dioxopiperidin-3-yl)-4-((7-(2-fluoro-6-methylpyridin-3-yl)-4-methyl-3-oxo-3,4-dihydro-2H-benzo[b][1,4]oxazin-6-yl)amino)isoindoline-1,3-dione]: the DC50 at ZBTB7A was found to be 0.013 µM; on WIZ, 0.007 µM. Besides, the “HBF AUC” value with HbF is reported as “+ (+ = 15 ≤ AUC < 100)”.

In the case of `COc1ccc(-c2cc3c(cc2Nc2cccc4c2C(=O)N([C@H]2CCC(=O)NC2=O)C4=O)N(C)C(=O)CO3)cn1` [Compound 38, (S)-2-(2,6-dioxopiperidin-3-yl)-4-((7-(6-methoxypyridin-3-yl)-4-methyl-3-oxo-3,4-dihydro-2H-benzo[b][1,4]oxazin-6-yl)amino)isoindoline-1,3-dione], the DC50 on ZBTB7A came out at 0.013 µM; at WIZ, 0.014 µM. Besides, in the assay on HbF, the “HBF AUC” value is “++ (++ = 100 ≤ AUC < 150)”.

Turning to `COc1ccc(-c2cc3c(cc2Nc2cccc4c2C(=O)N([C@H]2CCC(=O)NC2=O)C4=O)N(C)C(=O)[C@@H](C)O3)cn1` [Compound 39, 2-((S)-2,6-dioxopiperidin-3-yl)-4-(((R)-7-(6-methoxypyridin-3-yl)-2,4-dimethyl-3-oxo-3,4-dihydro-2H-benzo[b][1,4]oxazin-6-yl)amino)isoindoline-1,3-dione], the DC50 on ZBTB7A came to 0.016 µM; on WIZ it was 0.013 µM. Further, in the assay on HbF, the “HBF AUC” value is “+ (+ = 15 ≤ AUC < 100)”.

Turning to `COc1ccc(-c2cc3c(cc2Nc2cccc4c2C(=O)N([C@H]2CCC(=O)NC2=O)C4=O)N(C)C(=O)[C@H](C)O3)cn1` [Compound 40, 2-((S)-2,6-dioxopiperidin-3-yl)-4-(((S)-7-(6-methoxypyridin-3-yl)-2,4-dimethyl-3-oxo-3,4-dihydro-2H-benzo[b][1,4]oxazin-6-yl)amino)isoindoline-1,3-dione], the DC50 at ZBTB7A was determined as 0.016 µM; at WIZ, 0.012 µM. Further, in the assay on HbF, the “HBF AUC” value was “+ (+ = 15 ≤ AUC < 100)”.

Turning to `Cc1cncc(-c2cc3c(cc2Nc2cccc4c2C(=O)N([C@H]2CCC(=O)NC2=O)C4=O)N(C)C(=O)CO3)c1` [Compound 41, (S)-2-(2,6-dioxopiperidin-3-yl)-4-((4-methyl-7-(5-methylpyridin-3-yl)-3-oxo-3,4-dihydro-2H-benzo[b][1,4]oxazin-6-yl)amino)isoindoline-1,3-dione], the DC50 was determined as 0.017 µM at ZBTB7A and 0.01 µM at WIZ. Further, the “HBF AUC” value in the assay on HbF is given as “+++ (+++ = AUC ≥ 150)”.

For `Cc1cncc(-c2cc3c(cc2Nc2cccc4c2C(=O)N([C@H]2CCC(=O)NC2=O)C4=O)N(C)C(=O)[C@@H](C)O3)c1` [Compound 42, 4-(((R)-2,4-dimethyl-7-(5-methylpyridin-3-yl)-3-oxo-3,4-dihydro-2H-benzo[b][1,4]oxazin-6-yl)amino)-2-((S)-2,6-dioxopiperidin-3-yl)isoindoline-1,3-dione], the figures for the DC50 at ZBTB7A and at WIZ were 0.018 µM and 0.009 µM, respectively. Also, the “HBF AUC” value with HbF is recorded as “+ (+ = 15 ≤ AUC < 100)”.

As for `Cc1cncc(-c2cc3c(cc2Nc2cccc4c2C(=O)N([C@H]2CCC(=O)NC2=O)C4=O)N(C)C(=O)[C@H](C)O3)c1` [Compound 43, 4-(((S)-2,4-dimethyl-7-(5-methylpyridin-3-yl)-3-oxo-3,4-dihydro-2H-benzo[b][1,4]oxazin-6-yl)amino)-2-((S)-2,6-dioxopiperidin-3-yl)isoindoline-1,3-dione], the DC50 amounted to 0.024 µM on ZBTB7A and 0.015 µM at WIZ. Besides, the “HBF AUC” value in the assay on HbF was “++ (++ = 100 ≤ AUC < 150)”.

For the compound `CCO[C@H]1CC[C@H](c2cc3c(cc2Nc2cccc4c2C(=O)N([C@H]2CCC(=O)NC2=O)C4=O)N(C)C(=O)CO3)CC1` [Compound 44, 2-((S)-2,6-dioxopiperidin-3-yl)-4-((7-((1r,4S)-4-ethoxycyclohexyl)-4-methyl-3-oxo-3,4-dihydro-2H-benzo[b][1,4]oxazin-6-yl)amino)isoindoline-1,3-dione], the figures for the DC50 on ZBTB7A and on WIZ were 0.006 µM and 0.004 µM, respectively. Moreover, in the assay on HbF, the “HBF AUC” value is “++ (++ = 100 ≤ AUC < 150)”.

In the case of `CCO[C@H]1CC[C@H](c2cc3c(cc2Nc2cccc4c2C(=O)N([C@H]2CCC(=O)NC2=O)C4=O)N(C)C(=O)[C@@H](C)O3)CC1` [Compound 45, 2-((S)-2,6-dioxopiperidin-3-yl)-4-(((R)-7-((1r,4R)-4-ethoxycyclohexyl)-2,4-dimethyl-3-oxo-3,4-dihydro-2H-benzo[b][1,4]oxazin-6-yl)amino)isoindoline-1,3-dione], the DC50 was 0.01 µM on ZBTB7A and 0.006 µM on WIZ. In addition, in the assay with HbF, the “HBF AUC” value is “++ (++ = 100 ≤ AUC < 150)”.

For the compound `CCO[C@H]1CC[C@H](c2cc3c(cc2Nc2cccc4c2C(=O)N([C@H]2CCC(=O)NC2=O)C4=O)N(C)C(=O)[C@H](C)O3)CC1` [Compound 46, 2-((S)-2,6-dioxopiperidin-3-yl)-4-(((S)-7-((1r,4S)-4-ethoxycyclohexyl)-2,4-dimethyl-3-oxo-3,4-dihydro-2H-benzo[b][1,4]oxazin-6-yl)amino)isoindoline-1,3-dione], the DC50 on ZBTB7A was 0.007 µM; on WIZ, 0.002 µM. In addition, the “HBF AUC” value in the assay on HbF is listed as “++ (++ = 100 ≤ AUC < 150)”.

For `Cc1cc(-c2cc3c(cc2Nc2cccc4c2C(=O)N([C@H]2CCC(=O)NC2=O)C4=O)N(C)C(=O)CO3)cc(C(F)F)n1` [Compound 47, (S)-4-((7-(2-(difluoromethyl)-6-methylpyridin-4-yl)-4-methyl-3-oxo-3,4-dihydro-2H-benzo[b][1,4]oxazin-6-yl)amino)-2-(2,6-dioxopiperidin-3-yl)isoindoline-1,3-dione], the DC50 at ZBTB7A worked out at 0.049 µM; at WIZ it was 0.043 µM. Further, in the assay with HbF, the “HBF AUC” value is recorded as “+++ (+++ = AUC ≥ 150)”.

Take `Cc1cc(-c2cc3c(cc2Nc2cccc4c2C(=O)N([C@H]2CCC(=O)NC2=O)C4=O)N(C)C(=O)[C@H](C)O3)cc(C(F)F)n1` [Compound 48, 4-(((S)-7-(2-(difluoromethyl)-6-methylpyridin-4-yl)-2,4-dimethyl-3-oxo-3,4-dihydro-2H-benzo[b][1,4]oxazin-6-yl)amino)-2-((S)-2,6-dioxopiperidin-3-yl)isoindoline-1,3-dione]: the results for the DC50 at ZBTB7A and at WIZ were 0.052 µM and 0.031 µM, respectively. For the same compound, in the assay with HbF, the “HBF AUC” value is given as “++ (++ = 100 ≤ AUC < 150)”.
